Results from PubChem BioAssay (NCI).
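The compound was tested at five concentrations on cells cultured in 96-well plates, with a 48-hour exposure period. GI50 marks 50% less growth. TGI is the concentration that stops growth completely.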

Legend:
Experiment in all cases: growth of human tumour cells (NCI), 48 h
BT-549 breast = system: BT-549 breast
HCC-2998 colon = system: HCC-2998 colon
HOP-92 NSCLC = system: HOP-92 NSCLC
MDA-MB-435 = system: MDA-MB-435
RXF 393 renal = system: RXF 393 renal
SK-MEL-28 melanoma = system: SK-MEL-28 melanoma
SK-OV-3 ovarian = system: SK-OV-3 ovarian
SNB-19 CNS = system: SNB-19 CNS
SW-620 colon = system: SW-620 colon
SR leukemia = system: SR leukemia

Question: Which results are given for `NS(=O)(=O)c1ccc(N(/C=C/C(=O)C(F)(F)F)CC(=O)c2ccc(F)cc2)cc1`?
Answer: GI50 (BT-549 breast): 19.3 µM; TGI (BT-549 breast): 43.3 µM; GI50 (HCC-2998 colon): 17.7 µM; TGI (HCC-2998 colon): 33.8 µM; GI50 (HOP-92 NSCLC): 21.3 µM; TGI (HOP-92 NSCLC): 60.9 µM; GI50 (MDA-MB-435): 26.5 µM; TGI (MDA-MB-435): 79.6 µM; GI50 (RXF 393 renal): 44 µM; TGI (RXF 393 renal): > 100 µM; GI50 (SK-MEL-28 melanoma): 43.7 µM; TGI (SK-MEL-28 melanoma): > 100 µM; GI50 (SK-OV-3 ovarian): 63.3 µM; TGI (SK-OV-3 ovarian): > 100 µM; GI50 (SNB-19 CNS): 53.8 µM; TGI (SNB-19 CNS): > 100 µM; GI50 (SW-620 colon): 21.5 µM; TGI (SW-620 colon): 46.6 µM

Question: What does the source list for `C/C(=N/NC(=O)c1ccccc1S(N)(=O)=O)C(CN1CCCCC1)C(C1=C(O)C2C=CC=CC2OC1=O)c1ccccc1` (centres undefined)?
Answer: TGI (HOP-92 NSCLC): 77.1 µM; TGI (RXF 393 renal): 68.4 µM; TGI (SK-OV-3 ovarian): > 100 µM; TGI (SNB-19 CNS): > 100 µM; TGI (SR leukemia): 61.8 µM; TGI (SW-620 colon): > 100 µM

Question: How did the GI50 (BT-549 breast) turn out when `Cc1c(Cl)cccc1C(=O)Nc1nc2c(s1)CN(C(=O)Nc1cccc(C(F)(F)F)c1)CC2` was run?
Answer: 0.547 µM

Question: And the TGI (BT-549 breast)?
Answer: > 50 µM

Question: And the GI50 (HCC-2998 colon)?
Answer: 0.647 µM

Question: What about the TGI (HCC-2998 colon) of the same compound?
Answer: 8.52 µM

Question: And the GI50 (HOP-92 NSCLC)?
Answer: 0.18 µM

Question: And the TGI (HOP-92 NSCLC)?
Answer: 15.6 µM

Question: What about the GI50 (RXF 393 renal) of the same compound?
Answer: 0.106 µM

Question: What about the TGI (RXF 393 renal) of the same compound?
Answer: 0.349 µM

Question: And the GI50 (SK-MEL-28 melanoma)?
Answer: 0.985 µM

Question: What about the TGI (SK-MEL-28 melanoma) of the same compound?
Answer: > 50 µM

Question: What about the GI50 (SK-OV-3 ovarian) of the same compound?
Answer: 0.215 µM

Question: And the TGI (SK-OV-3 ovarian)?
Answer: > 50 µM

Question: What about the GI50 (SNB-19 CNS) of the same compound?
Answer: 0.307 µM

Question: And the TGI (SNB-19 CNS)?
Answer: > 50 µM

Question: And the GI50 (SR leukemia)?
Answer: 78.9 nM

Question: And the TGI (SR leukemia)?
Answer: > 50 µM

Question: What about the GI50 (SW-620 colon) of the same compound?
Answer: 0.175 µM

Question: What about the TGI (SW-620 colon) of the same compound?
Answer: > 50 µM

Question: With `CCN(CC)CC(=O)NC1c2ccccc2Oc2ccccc21` as the compound, how does the TGI (HCC-2998 colon) read?
Answer: > 100 µM

Question: What about the TGI (RXF 393 renal) of the same compound?
Answer: > 100 µM

Question: What about the TGI (SK-MEL-28 melanoma) of the same compound?
Answer: > 100 µM

Question: And the TGI (SK-OV-3 ovarian)?
Answer: > 100 µM

Question: What about the TGI (SNB-19 CNS) of the same compound?
Answer: > 100 µM

Question: And the TGI (SR leukemia)?
Answer: > 100 µM

Question: What about the TGI (SW-620 colon) of the same compound?
Answer: > 100 µM

Question: What does the source list for `Cc1c(C(Cc2ccccc2N(C)C(=O)/C=C\C(=O)O)c2c[nH]c3ccccc23)c2ccccc2n1C` (centres undefined)?
Answer: TGI (HCC-2998 colon): 30.9 µM; TGI (RXF 393 renal): 27.3 µM; TGI (SK-OV-3 ovarian): 40.2 µM; TGI (SNB-19 CNS): 39.4 µM; TGI (SR leukemia): 46.7 µM; TGI (SW-620 colon): 34.5 µM

Question: Which TGI (HCC-2998 colon) does the source give for `C[C@@H]1C(=O)CC2C(C)(C)CCC[C@]2(C)[C@@]12CC[C@]1(C=COC1)O2` (some centres undefined) here?
Answer: > 100 µM

Question: What about the TGI (HOP-92 NSCLC) of the same compound?
Answer: 48 µM

Question: What about the TGI (RXF 393 renal) of the same compound?
Answer: 56.3 µM

Question: And the TGI (SK-OV-3 ovarian)?
Answer: 91.7 µM

Question: What about the TGI (SNB-19 CNS) of the same compound?
Answer: > 100 µM

Question: What about the TGI (SR leukemia) of the same compound?
Answer: 59 µM

Question: What about the TGI (SW-620 colon) of the same compound?
Answer: > 100 µM

Question: For `O=C(/C=C/c1ccccc1)NC1C=Nc2ccc([N+](=O)[O-])cc2NC1=O` (centres undefined), which TGI (HCC-2998 colon) is on record?
Answer: > 100 µM

Question: And the TGI (HOP-92 NSCLC)?
Answer: > 100 µM

Question: What about the TGI (RXF 393 renal) of the same compound?
Answer: > 100 µM

Question: What about the TGI (SK-MEL-28 melanoma) of the same compound?
Answer: > 100 µM

Question: What about the TGI (SK-OV-3 ovarian) of the same compound?
Answer: > 100 µM

Question: What about the TGI (SNB-19 CNS) of the same compound?
Answer: > 100 µM

Question: What about the TGI (SR leukemia) of the same compound?
Answer: > 100 µM

Question: What about the TGI (SW-620 colon) of the same compound?
Answer: > 100 µM

Question: Which TGI (HCC-2998 colon) does the source give for `NC1=C(O)c2cccc3cccc(c23)C1=O` here?
Answer: > 100 µM

Question: And the TGI (HOP-92 NSCLC)?
Answer: > 100 µM

Question: What about the TGI (RXF 393 renal) of the same compound?
Answer: > 100 µM

Question: And the TGI (SK-MEL-28 melanoma)?
Answer: > 100 µM

Question: What about the TGI (SK-OV-3 ovarian) of the same compound?
Answer: > 100 µM

Question: And the TGI (SNB-19 CNS)?
Answer: > 100 µM

Question: What about the TGI (SW-620 colon) of the same compound?
Answer: > 100 µM

Question: Which TGI (HCC-2998 colon) does the source give for `O=C(O)/C=C/c1ccc(O)c(O)c1` here?
Answer: > 100 µM

Question: And the TGI (HOP-92 NSCLC)?
Answer: > 100 µM

Question: What about the TGI (RXF 393 renal) of the same compound?
Answer: > 100 µM

Question: What about the TGI (SK-MEL-28 melanoma) of the same compound?
Answer: > 100 µM

Question: And the TGI (SK-OV-3 ovarian)?
Answer: > 100 µM

Question: And the TGI (SNB-19 CNS)?
Answer: > 100 µM

Question: What about the TGI (SW-620 colon) of the same compound?
Answer: > 76.3 µM

Question: How did the TGI (HCC-2998 colon) turn out when `COC(=O)C(=O)C(C#N)c1nc2ccccc2s1` (centres undefined) was run?
Answer: > 100 µM

Question: What about the TGI (HOP-92 NSCLC) of the same compound?
Answer: > 100 µM

Question: What about the TGI (RXF 393 renal) of the same compound?
Answer: > 100 µM

Question: What about the TGI (SK-MEL-28 melanoma) of the same compound?
Answer: > 100 µM

Question: What about the TGI (SK-OV-3 ovarian) of the same compound?
Answer: > 100 µM

Question: And the TGI (SNB-19 CNS)?
Answer: > 100 µM

Question: And the TGI (SW-620 colon)?
Answer: > 100 µM

Question: `O=C(CCCc1ccc(N(CCCl)CCCl)cc1)NCc1ccccc1` was tested. Which GI50 (BT-549 breast) did it give?
Answer: 3.86 µM

Question: What about the TGI (BT-549 breast) of the same compound?
Answer: 27.2 µM

Question: And the GI50 (HCC-2998 colon)?
Answer: 15.4 µM

Question: What about the TGI (HCC-2998 colon) of the same compound?
Answer: 36.4 µM

Question: And the GI50 (MDA-MB-435)?
Answer: 3.69 µM

Question: And the TGI (MDA-MB-435)?
Answer: 18 µM

Question: And the GI50 (RXF 393 renal)?
Answer: 10.5 µM

Question: And the TGI (RXF 393 renal)?
Answer: 25.2 µM

Question: What about the GI50 (SK-MEL-28 melanoma) of the same compound?
Answer: 17.2 µM

Question: What about the TGI (SK-MEL-28 melanoma) of the same compound?
Answer: > 100 µM

Question: And the GI50 (SK-OV-3 ovarian)?
Answer: 7.15 µM

Question: And the TGI (SK-OV-3 ovarian)?
Answer: 40.8 µM

Question: And the GI50 (SNB-19 CNS)?
Answer: 18.7 µM

Question: And the TGI (SNB-19 CNS)?
Answer: > 100 µM

Question: And the GI50 (SR leukemia)?
Answer: 978 nM

Question: And the TGI (SR leukemia)?
Answer: 3.66 µM

Question: And the GI50 (SW-620 colon)?
Answer: 6.4 µM

Question: What about the TGI (SW-620 colon) of the same compound?
Answer: 73.4 µM
